Laboratory results from PMC3602595, “The Structure of HasB Reveals a New Class of TonB Protein Fold” (PLoS ONE, 2013).
Ends that are not written are not given here.

What was measured:
HasBCTD [1] = experiment: NMR chemical shift perturbation of HasBCTD by HasR TonB box peptides; assay type: binding, Serratia marcescens; conditions: for chemical shift perturbation in 15N-1H HSQC spectra of HasBCTD: NMR HSQC, 293K, 50 mM sodium phosphate buffer, pH 7, 50 mM NaCl, 15% D2O/H2O, peptide:HasBCTD ratios 1∶2 to 4∶1, CSP >0.2 ppm considered large
Description: All NMR experiments were recorded at 293K on a Varian 600 MHz spectrometer with a cryogenically cooled triple resonance ^1H/(^15N/^13C) PFG probe. Proton chemical shifts were referenced to 2,2-dimethyl-2-silapentane-5-sulfonate (DSS) as 0 ppm. ^15N and ^13C chemical shifts were referenced indirectly to DSS. The pulse sequences were taken as implemented in the Varian BioPack. NMR data were processed using NMRPipe/NMRDraw and spectra were analyzed using NMRViewJ and CCPNMR Analysis, [24]. The HasB samples used for NMR experiments were from 0.35 to 0.7 mM in 50 mM sodium phosphate buffer, pH 7, 50 mM NaCl and 15% D2O/H2O (v/v).
CSP values of ^1H and ^15N amide of HasBCTD were obtained after interaction with the TonB box peptide by comparing the ^1H-^15N HSQC spectra of free and bound HasBCTD as previously explained. The samples were prepared in 50 mM sodium phosphate buffer, pH 7, 50 mM NaCl and 15% D2O/H20 (v/v). Lyophilized peptides were added to the HasBCTD solution at 1∶2, 1∶1, 2∶1 and 4∶1 ratios. CSP values greater than 0.2 ppm were considered as large. For proline residues no chemical shift change can be observed because of the lack of backbone amide proton.

[2] = Conformation of 21-mer peptide in solution by 2D TOCSY, NOESY and ROESY; assay type: physicochemical; conditions: free peptide, data not shown
HasBCTD [3] = experiment: ITC interaction of HasBCTD with HasR TonB box peptides; assay type: binding, Serratia marcescens
Description: (§1) The TonB box peptides were synthesized with free acid C- and amine N-termini by Proteogenix (Strasbourg, France).
(§2) ITC was performed at 25°C using a MicroCal VP titration calorimeter (MicroCal-GE Healthcare) under the same conditions as described previously. The buffer was 20 mM sodium phosphate, pH 7, 50 mM NaCl for all the titrations, except for experiments carried out in the presence of HasR where 20 mM sodium phosphate, pH 7, 0.08% ZW 3–14 was used.
The heat of dilution of peptide/protein injections was determined either by injecting the ligand into the buffer alone or by injecting the ligand into the cell after the saturation of the protein binding site. The value obtained was subtracted from the heat of reaction to give the effective heat of binding. The resulting titration data were analyzed using Microcal-ORIGIN software package. The molar binding stoichiometry (N), association constant (Ka; Kd = 1/Ka) and enthalpy changes (ΔH) of binding were determined by fitting the binding isotherm to a model with one set of sites. Their values are the average of three experiments. […] For HasR titration experiments with HasB, 5–8×10^−5 M of HasBCTD wild type or mutants and 3–5 µM of HasR were used.

TonBCTD = target: T1, TonBCTD (Escherichia coli, UniProt P02929); experiment: ITC interaction of TonBCTD with TonB box peptide; assay type: binding, E. coli
T1 construct: TonBCTD (TonB C-terminal domain); made in house
Description: Labeled and unlabeled HasBCTD (named HasB133 in our earlier publication) were prepared as described. TonBCTD of E. coli , previously named TonB116, was prepared as already reported. HasB mutations were introduced by PCR into the plasmid encoding HasBCTD wild type with the following pairs of oligonucleotides:
as §1, §2
The heat of dilution of peptide/protein injections was determined either by injecting the ligand into the buffer alone or by injecting the ligand into the cell after the saturation of the protein binding site. The value obtained was subtracted from the heat of reaction to give the effective heat of binding. The resulting titration data were analyzed using Microcal-ORIGIN software package. The molar binding stoichiometry (N), association constant (Ka; Kd = 1/Ka) and enthalpy changes (ΔH) of binding were determined by fitting the binding isotherm to a model with one set of sites. Their values are the average of three experiments. HasBCTD/TonBCTD titrations with peptides were carried out by injecting 20–35 consecutive aliquots of 5–10 µL of a 1–1.5 mM peptide solution into the ITC cell containing 4 to 9×10^−5 M of protein solution of either HasBCTD or TonBCTD. For HasR titration experiments with HasB, 5–8×10^−5 M of HasBCTD wild type or mutants and 3–5 µM of HasR were used.

T1 sequence (P02929 148-239): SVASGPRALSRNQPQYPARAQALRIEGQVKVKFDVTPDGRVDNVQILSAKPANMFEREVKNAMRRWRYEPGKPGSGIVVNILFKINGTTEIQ

Sequence | location of the most substantial CSP on HasBCTD (HasBCTD [1]; 15N HSQC, 21-mer peptide) | chemical shift perturbation in 15N-1H HSQC spectra of HasBCTD (HasBCTD [1]) | conformation in solution [2] | affinity constant (Ka) (HasBCTD [3]; ITC, HasBCTD, 25°C, 20 mM sodium phosphate, pH 7, 50 mM NaCl, one set of sites, average of three experiments, HasBCTD 9×10^−5 M, peptide 1.5 mM) | Kd (HasBCTD [3]; ITC, HasBCTD, 25°C, 20 mM sodium phosphate, pH 7, 50 mM NaCl, Kd = 1/Ka) | affinity (association constant Ka) (TonBCTD; ITC, TonBCTD, 25°C, 20 mM sodium phosphate, pH 7, 50 mM NaCl, one set of sites, average of three experiments) | Kd (TonBCTD; ITC, TonBCTD, 25°C, 20 mM sodium phosphate, pH 7, 50 mM NaCl, Kd = 1/Ka) | interaction with TonBCTD (in words) (TonBCTD; same range of concentration as that used with HasBCTD) | interaction with HasBCTD (in words) (HasBCTD [3]; ITC and NMR CSP)
GDGGALALDSLTVLGAGGNNA [21-mer peptide] | especially along the strand β3 and on the helix H1 | several CSP were observed | unstructured in solution | 40000 M⁻¹ | 25 µM | – | – | – | –
ALDSLTVLGAGG [dodecamer peptide] | – | no chemical shift perturbation could be observed | – | – | – | about 2×10^4 M^−1 | 50 µM | able to bind to TonBCTD | did not reveal any interaction with HasBCTD
